From ChEMBL document CHEMBL1155654, “Acylated flavonol glycosides from the flower of Inula britannica” (J Nat Prod, 2000)
Values after ≈ are worked out from the molar mass of the structure shown. Active and inactive are the calls of the source. The calls are words filed in the database; no cut-off is given here.

How the values were obtained:
[1] = tested on: Radical scavenging activity; assay: Antioxidant activity assessed as DPPH free radical scavenging activity; format: functional
[2] = tested on: HL-60; assay: Antioxidant activity in human HL60 cells assessed as inhibition of TPA-induced free radical formation; format: functional, cell-based
[3] = tested on: HL-60; assay: Antioxidant activity in human HL60 cells assessed as reduction of cytochrome-c […]; format: functional, cell-based

SMILES	IC50 [1]	Activity [2]	IC50 [3]
CCC(C)C(=O)OC[C@H]1O[C@@H](Oc2cc3oc(-c4ccc(O)c(O)c4)c(O)c(=O)c3c(O)c2OC)[C@H](O)[C@@H](O)[C@@H]1O (some centres undefined)	23.5 µg/mL (≈ 40.6 µM)	Active	11.2 µg/mL (≈ 19.4 µM)
COc1c(O)cc2oc(-c3ccc(O)c(O)c3)c(OC)c(=O)c2c1O [AXILLARIN]	12.4 µg/mL (≈ 35.8 µM)	Active	2.9 µg/mL (≈ 8.37 µM)
COc1c(O)cc2oc(-c3ccc(O)c(O)c3)c(O)c(=O)c2c1O [PATULETIN]	9 µg/mL (≈ 27.1 µM)	Active	10.1 µg/mL (≈ 30.4 µM)
COc1c(O[C@@H]2O[C@H](CO)[C@@H](O)[C@H](O)[C@H]2O)cc2oc(-c3ccc(O)cc3)cc(=O)c2c1O [HISPIDULOSIDE]	> 100 µg/mL	–	> 50 µg/mL
O=C(O)c1cc(O)c(O)c(O)c1 [GALLIC ACID]	3.7 µg/mL (≈ 21.7 µM)	–	3.2 µg/mL (≈ 18.8 µM)
O=c1cc(-c2ccc(O)c(O)c2)oc2cc(O)cc(O)c12 [LUTEOLIN]	7.2 µg/mL (≈ 25.2 µM)	Active	12.1 µg/mL (≈ 42.3 µM)
COc1c(O[C@@H]2O[C@H](COC(=O)CC(C)C)[C@@H](O)[C@H](O)[C@H]2O)cc2oc(-c3ccc(O)c(O)c3)c(O)c(=O)c2c1O	14.3 µg/mL (≈ 24.7 µM)	Active	11.7 µg/mL (≈ 20.2 µM)
O=c1c(O[C@@H]2O[C@H](CO)[C@@H](O)[C@H](O)[C@H]2O)c(-c2ccc(O)cc2)oc2cc(O)cc(O)c12 [ASTRAGALIN]	> 100 µg/mL	–	> 50 µg/mL
COc1c(O[C@@H]2O[C@H](COC(=O)C(C)C)[C@@H](O)[C@H](O)[C@H]2O)cc2oc(-c3ccc(O)c(O)c3)c(O)c(=O)c2c1O	14.3 µg/mL (≈ 25.3 µM)	Active	10.6 µg/mL (≈ 18.8 µM)
COc1c(O[C@@H]2O[C@H](CO)[C@@H](O)[C@H](O)[C@H]2O)cc2oc(-c3ccc(O)c(O)c3)c(O)c(=O)c2c1O [PATULITRIN]	10.3 µg/mL (≈ 20.8 µM)	Active	8.1 µg/mL (≈ 16.4 µM)
O=c1c(O)c(-c2ccc(O)cc2)oc2cc(O)cc(O)c12 [KAEMPFEROL]	74.4 µg/mL (≈ 260 µM)	–	10 µg/mL (≈ 34.9 µM)
